Where two headings read alike, the source gives them in different places.
How the values were obtained:
[1] = 20 °C
[2] = for plasma drug concentrations above the LLOQ: topical gel, dose levels 1-5, LLOQ 0.02 ng/mL
[3] = for Labeled amount / Related substances Impurity A / Related substances Impurity B / Related substances Impurity C / Related substances Impurity D / Related substances Impurity E / Related substances Impurity F / Related substances RRT0.73 / Related substances RRT1.10 / Related substances RRT2.18 / Related substances Total impurities: mixed 1:5 with CMC-Na
[4] = in water
[5] = tested on: human liver cancer HepG2 cells; conditions: cited from earlier work
[6] = tested on: experimental autoimmune encephalomyelitis (EAE); conditions: in vivo; cited from earlier work
beclin1 = beclin1 (Homo sapiens, UniProt Q14457); conditions: targets beclin1; cited from earlier work
[7] = High humidity for 10 days (RH 90%±5%)
[8] = High temperature for 10 days (60°C±2°C)

beclin1, sequence (Q14457 whole entry, species assumed): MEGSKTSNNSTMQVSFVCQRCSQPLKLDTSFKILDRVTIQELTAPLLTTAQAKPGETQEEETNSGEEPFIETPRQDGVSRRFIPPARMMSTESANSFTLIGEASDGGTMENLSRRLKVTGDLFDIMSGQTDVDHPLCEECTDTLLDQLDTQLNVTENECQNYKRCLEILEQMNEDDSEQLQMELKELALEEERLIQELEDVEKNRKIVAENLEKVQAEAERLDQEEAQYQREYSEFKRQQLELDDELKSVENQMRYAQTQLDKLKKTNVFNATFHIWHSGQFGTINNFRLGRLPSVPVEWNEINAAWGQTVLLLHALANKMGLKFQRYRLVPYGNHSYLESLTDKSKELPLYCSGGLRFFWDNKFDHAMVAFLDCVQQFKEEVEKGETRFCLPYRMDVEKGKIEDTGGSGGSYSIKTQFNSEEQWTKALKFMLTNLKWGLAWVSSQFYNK

Question: What does the source list for `CO[C@H]1[C@H](O)[C@H](O[C@H]2CC[C@@]3(C)[C@H](CC[C@@H]4[C@@H]3CC[C@]3(C)[C@@H](C5=CC(=O)OC5)CC[C@]43O)C2)O[C@@H](C)[C@@H]1O` [17β-neriifolin]?
Answer: Dissolution behavior ([1]; Ethanol concentration 50 %, sample concentration 24 mg/g): Dissolved; Dissolution behavior ([1]; Ethanol concentration 66 %, sample concentration 32 mg/g): Dissolved; Dissolution behavior ([1]; Ethanol concentration 75 %, sample concentration 40 mg/g): Dissolved; Dissolution behavior ([1]; Ethanol concentration 100 %, sample concentration 50 mg/g): Dissolved; systemic exposure, dose dependence ([2]; 0.008-0.06 mg/cm^2 dose range): No dose-dependent increase; plasma drug concentrations above the LLOQ ([2]; four Australian subjects): 0.021 to 0.101 ng/mL; plasma drug concentrations above the LLOQ ([2]; seven Chinese subjects): 0.022 to 0.106 ng/mL; stability of the combination ([3]; combination with sodium carboxymethyl cellulose compared with combination with Carbomer): significantly superior; impact on the related substances and drug content ([3]; combined 1:5 with sodium carboxymethyl cellulose, high temperature, high humidity, illumination, 10 days): no impact; Labeled amount ([3]; 0 days): 99.56%; Related substances Impurity A ([3]; 0 days): 0.17%; Related substances Impurity B ([3]; 0 days): 0.36%; Related substances Impurity C ([3]; 0 days): 0.25%; Related substances Impurity D ([3]; 0 days): 0.13%; Related substances Impurity E ([3]; 0 days): 0.15%; Related substances Impurity F ([3]; 0 days): 0.14%; Related substances RRT0.73 ([3]; 0 days): 0.05%; Related substances RRT1.10 ([3]; 0 days): 0.04%; Related substances RRT2.18 ([3]; 0 days): 0.03%; Related substances Total impurities ([3]; 0 days): 1.32%; Labeled amount [3, 7]: 99.42%; Related substances Impurity A [3, 7]: 0.17%; Related substances Impurity B [3, 7]: 0.36%; Related substances Impurity C [3, 7]: 0.25%; Related substances Impurity D [3, 7]: 0.13%; Related substances Impurity E [3, 7]: 0.15%; Related substances Impurity F [3, 7]: 0.14%; Related substances RRT0.73 [3, 7]: 0.05%; Related substances RRT1.10 [3, 7]: 0.04%; Related substances RRT2.18 [3, 7]: 0.03%; Related substances Total impurities [3, 7]: 1.32%; Labeled amount [3, 8]: 100.95%; Related substances Impurity A [3, 8]: 0.17%; Related substances Impurity B [3, 8]: 0.36%; Related substances Impurity C [3, 8]: 0.25%; Related substances Impurity D [3, 8]: 0.13%; Related substances Impurity E [3, 8]: 0.15%; Related substances Impurity F [3, 8]: 0.14%; Related substances RRT0.73 [3, 8]: 0.05%; Related substances RRT1.10 [3, 8]: 0.04%; Related substances RRT2.18 [3, 8]: 0.03%; Related substances Total impurities [3, 8]: 1.32%; Labeled amount ([3]; Strong light for 10 days): 99.96%; Related substances Impurity A ([3]; Strong light for 10 days): 0.17%; Related substances Impurity B ([3]; Strong light for 10 days): 0.36%; Related substances Impurity C ([3]; Strong light for 10 days): 0.25%; Related substances Impurity D ([3]; Strong light for 10 days): 0.13%; Related substances Impurity E ([3]; Strong light for 10 days): 0.15%; Related substances Impurity F ([3]; Strong light for 10 days): 0.14%; Related substances RRT0.73 ([3]; Strong light for 10 days): 0.05%; Related substances RRT1.10 ([3]; Strong light for 10 days): 0.04%; Related substances RRT2.18 ([3]; Strong light for 10 days): 0.03%; Related substances Total impurities ([3]; Strong light for 10 days): 1.32%; water solubility [4]: about 70 µg/mL; cell cycle arrest and apoptosis [5]: induce cell cycle arrest and apoptosis

Question: Which “progression of experimental autoimmune encephalomyelitis (EAE)” value [6] does the source give for `CO[C@H]1[C@H](O)[C@H](O[C@H]2CC[C@@]3(C)[C@H](CC[C@@H]4[C@@H]3CC[C@]3(C)[C@@H](C5=CC(=O)OC5)CC[C@]43O)C2)O[C@@H](C)[C@@H]1O` [neriifolin] here?
Answer: The value was “ameliorate the progression”.

Question: What about the “formation of LC3-associated phagosomes” value (beclin1) of the same compound?
Answer: The value was “inhibit the formation of LC3-associated phagosomes”.

Source: EP4793279A1, “COMPOUND AND METHOD FOR TREATING AND/OR […] KERATOSIS” (priority 2023, dated 2025)
